Experimental data taken from PMC9890698 (BMC Biology, 2023).
“And” between values parts separate entries of the source, which are not always exact repeats. Equal entries are not always repeated.

How the values were obtained:
Human P2Y1-R [1] = molecular target: T1, Human P2Y1-R (Homo sapiens, UniProt P47900); experiment: Gαq protein activation BRET2 assay (Gαq-RLuc8/GFP2-Gγ2/Gβ1) in HEK293T cells expressing P2Y1-R; assay type: cell-based; conditions: Fig. S2a, P2Y1-R, individual replicates
T1 construct: expressed in transfected cells; host or cells: HEK293T/17
Description: (§1) As previously described, using a BRET^2 (bioluminescence resonance energy transfer)-based assay, we directly monitored the basal Gαq protein activation by measuring the interaction between Gαq and Gγ2 subunits of the Gαqβ1γ2 heterotrimer complex. Indeed, this assay is based on the non-radiative transfer between the Renilla reniformis luciferase (RLuc8) energy donor fused to the Gαq protein subunit and the fluorescent GFP2 energy acceptor fused to Gγ2 protein subunit (Fig. 1a). […] By contrast, ligand-independent constitutive receptor activation or agonist-induced receptor activation will promote Gαq/Gγ2 subunit dissociation, thereby leading to a decrease of the basal BRET signal (Fig. 1a). […] To preclude any P2Y1-R activation by a passive release of ADP by HEK293T cells, we performed similar experiments in the presence of high concentration of apyrase (0.2U/mL) to degrade any trace of ADP in the medium (Additional File 2: Fig. S2a). Under these conditions, P2Y1-R expression still induces a marked and significant decrease of the basal BRET signal compared to control cells (pcDNA3.1), thereby supporting a P2Y1-R-dependent constitutive activation of Gαq protein. […] Of note, because P2Y1-R and AT1-R were respectively Myc- and HA-tagged and were thus detected using different primary antibodies, their expression at the cell surface cannot be compared between each other’s.
(§2) Human P2Y1-R (NCBI Reference Sequence: NM_002563.2) and P2Y12-R (NCBI Reference Sequence: NM_022788.3) were fused to double Myc epitope and rat AT1-R (NCBI Reference Sequence: NM_030985.4) to HA tag in N-terminus extracellular region. Alternatively, receptors were also fused to Venus tag in C-terminus intracellular region. Plasmids encoding Gαq-RLuc8, GFP2-Gγ2 and untagged Gβ1 were previously described. ADP was purchased from Sigma-Aldrich/Merck (Darmstadt, Germany). […] The Gq inhibitor (FR900359) was kindly supplied by Evi Kostenis (University of Bonn. Germany).
G protein activation and β-arrestin 2 recruitment were performed as previously described. Briefly, vectors encoding receptors, Gαq-RLuc8, GFP2-Gγ2, Gβ1, or β-arrestin 2 were transiently cotransfected into HEK293T/17 cells as indicated in the figure legends. Forty-eight hours after transfection, cells were washed and resuspended in PBS containing 0.1% (w/v) glucose at room temperature and then distributed (80 μg proteins/well) in a 96-well microplate (PerkinElmer). For G protein activation experiments (BRET^2), cells were incubated in the absence (basal BRET signal) or in the presence of ligand for 1 minute. BRET signal between RLuc8 and GFP2 was measured after addition of the luciferase substrate coelenterazine 400a (5 μM). For β-arrestin 2 recruitment (BRET^1), cells were stimulated with ligands for 5 or 15 min. BRET signal was recorded after incubation with coelenterazine h (5 μM) for 8 min. For kinetics studies, BRET signal between RLuc and Venus was recorded at 20-s intervals at basal state for the 2 first minutes and then for 5 min after ligand injection. For saturation curves (BRET^1), the expression level of Venus- or RLuc-tagged protein was determined by direct measurement of total fluorescence and luminescence respectively. Total fluorescence was first measured with an excitation filter at 485 nm and an emission filter at 520 nm. Then, the same sample was incubated for 8 minutes with 5 μM coelenterazine h and the total luminescence was measured. BRET^2 and BRET^1 readings were collected using a modified Infinite F500 (Tecan Group Ltd). The BRET^2 signal was calculated by the ratio of emission of GFP2 (510–540 nm) to RLuc8 (370–450 nm) and the BRET^1 signal by the ratio of emission of Venus (520–570 nm) to RLuc (370–480 nm). […]

[2] = system: Gαq protein in HEK293T cells (pcDNA3.1); experiment: Gαq protein activation BRET2 assay in control HEK293T cells without receptor (pcDNA3.1 / 0 μg); assay type: cell-based, Human; conditions: Fig. S2a, pcDNA3.1, individual replicates
Description: as §1
G protein activation and β-arrestin 2 recruitment were performed as previously described. […] BRET signal between RLuc8 and GFP2 was measured after addition of the luciferase substrate coelenterazine 400a (5 μM). […] BRET signal was recorded after incubation with coelenterazine h (5 μM) for 8 min. For kinetics studies, BRET signal between RLuc and Venus was recorded at 20-s intervals at basal state for the 2 first minutes and then for 5 min after ligand injection. For saturation curves (BRET^1), the expression level of Venus- or RLuc-tagged protein was determined by direct measurement of total fluorescence and luminescence respectively. Total fluorescence was first measured with an excitation filter at 485 nm and an emission filter at 520 nm. Then, the same sample was incubated for 8 minutes with 5 μM coelenterazine h and the total luminescence was measured. BRET^2 and BRET^1 readings were collected using a modified Infinite F500 (Tecan Group Ltd). The BRET^2 signal was calculated by the ratio of emission of GFP2 (510–540 nm) to RLuc8 (370–450 nm) and the BRET^1 signal by the ratio of emission of Venus (520–570 nm) to RLuc (370–480 nm). Sometimes, results are expressed as the Net BRET computed by deducting the BRET background signal (obtained in the presence of the energy donor alone) from the BRET signal (acquired from cells expressing both the energy donor and acceptor).

Human P2Y1-R [3] = molecular target: T1, Human P2Y1-R; experiment: β-arrestin 2 recruitment BRET1 assay (β-arrestin 2-RLuc / P2Y1-R-Venus) in HEK293T cells; assay type: cell-based; conditions: Fig. S5; P2Y1-R; (+) apyrase; individual replicates
Description: We assessed β-arrestin 2 recruitment to the receptor using BRET^1 assay. The assay measures the interaction between β-arrestin 2 fused to the Renilla reniformis luciferase (RLuc) energy donor and the receptor fused to fluorescent Venus energy acceptor (Fig. 3a). The recruitment of cytosolic β-arrestin 2 to the receptor at the plasma membrane in the presence of an agonist will promote a significant increase of the BRET signal compared to the basal state, reflecting the close proximity between the β-arrestin 2 energy donor and the receptor energy acceptor [22].
as §2
G protein activation and β-arrestin 2 recruitment were performed as previously described. Briefly, vectors encoding receptors, Gαq-RLuc8, GFP2-Gγ2, Gβ1, or β-arrestin 2 were transiently cotransfected into HEK293T/17 cells as indicated in the figure legends. Forty-eight hours after transfection, cells were washed and resuspended in PBS containing 0.1% (w/v) glucose at room temperature and then distributed (80 μg proteins/well) in a 96-well microplate (PerkinElmer). For G protein activation experiments (BRET^2), cells were incubated in the absence (basal BRET signal) or in the presence of ligand for 1 minute. BRET signal between RLuc8 and GFP2 was measured after addition of the luciferase substrate coelenterazine 400a (5 μM). For β-arrestin 2 recruitment (BRET^1), cells were stimulated with ligands for 5 or 15 min. BRET signal was recorded after incubation with coelenterazine h (5 μM) for 8 min. For kinetics studies, BRET signal between RLuc and Venus was recorded at 20-s intervals at basal state for the 2 first minutes and then for 5 min after ligand injection. For saturation curves (BRET^1), the expression level of Venus- or RLuc-tagged protein was determined by direct measurement of total fluorescence and luminescence respectively. Total fluorescence was first measured with an excitation filter at 485 nm and an emission filter at 520 nm. Then, the same sample was incubated for 8 minutes with 5 μM coelenterazine h and the total luminescence was measured. BRET^2 and BRET^1 readings were collected using a modified Infinite F500 (Tecan Group Ltd). The BRET^2 signal was calculated by the ratio of emission of GFP2 (510–540 nm) to RLuc8 (370–450 nm) and the BRET^1 signal by the ratio of emission of Venus (520–570 nm) to RLuc (370–480 nm). Sometimes, results are expressed as the Net BRET computed by deducting the BRET background signal (obtained in the presence of the energy donor alone) from the BRET signal (acquired from cells expressing both the energy donor and acceptor).

Human P2Y12-R = molecular target: T2, Human P2Y12-R (Homo sapiens, UniProt Q9H244); experiment: β-arrestin 2 recruitment BRET1 assay (β-arrestin 2-RLuc / P2Y12-R-Venus) in HEK293T cells; assay type: cell-based; conditions: Fig. S5; P2Y12-R; (+) apyrase; individual replicates
T2 construct: expressed in transfected cells; host or cells: HEK293T/17
Description: We assessed β-arrestin 2 recruitment to the receptor using BRET^1 assay. The assay measures the interaction between β-arrestin 2 fused to the Renilla reniformis luciferase (RLuc) energy donor and the receptor fused to fluorescent Venus energy acceptor (Fig. 3a). The recruitment of cytosolic β-arrestin 2 to the receptor at the plasma membrane in the presence of an agonist will promote a significant increase of the BRET signal compared to the basal state, reflecting the close proximity between the β-arrestin 2 energy donor and the receptor energy acceptor [22]. […]
G protein activation and β-arrestin 2 recruitment were performed as previously described. […] BRET signal between RLuc8 and GFP2 was measured after addition of the luciferase substrate coelenterazine 400a (5 μM). […] BRET signal was recorded after incubation with coelenterazine h (5 μM) for 8 min. For kinetics studies, BRET signal between RLuc and Venus was recorded at 20-s intervals at basal state for the 2 first minutes and then for 5 min after ligand injection. For saturation curves (BRET^1), the expression level of Venus- or RLuc-tagged protein was determined by direct measurement of total fluorescence and luminescence respectively. Total fluorescence was first measured with an excitation filter at 485 nm and an emission filter at 520 nm. […] BRET^2 and BRET^1 readings were collected using a modified Infinite F500 (Tecan Group Ltd). […]

HEK293T cells (pcDNA3.1) = experiment: β-arrestin 2 BRET1 basal signal in control HEK293T cells without receptor (pcDNA3.1); assay type: cell-based, Human; conditions: Fig. S5, (+) apyrase, individual replicates
Description: Supplement 12915_2023_1528_MOESM8_ESM.xlsx, sheet "Fig. S5" | column: (+) apyrase

T2 sequence (Q9H244 whole entry): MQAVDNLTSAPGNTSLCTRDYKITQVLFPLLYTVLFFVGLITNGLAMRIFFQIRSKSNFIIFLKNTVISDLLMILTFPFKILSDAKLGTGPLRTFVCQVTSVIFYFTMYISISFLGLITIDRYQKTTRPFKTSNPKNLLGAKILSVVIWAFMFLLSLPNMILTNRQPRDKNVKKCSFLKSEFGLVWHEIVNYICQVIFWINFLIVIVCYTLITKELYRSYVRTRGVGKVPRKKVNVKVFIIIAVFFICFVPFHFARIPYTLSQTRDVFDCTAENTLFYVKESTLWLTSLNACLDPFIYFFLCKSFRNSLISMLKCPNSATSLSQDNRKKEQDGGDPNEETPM
T1 sequence (P47900 whole entry): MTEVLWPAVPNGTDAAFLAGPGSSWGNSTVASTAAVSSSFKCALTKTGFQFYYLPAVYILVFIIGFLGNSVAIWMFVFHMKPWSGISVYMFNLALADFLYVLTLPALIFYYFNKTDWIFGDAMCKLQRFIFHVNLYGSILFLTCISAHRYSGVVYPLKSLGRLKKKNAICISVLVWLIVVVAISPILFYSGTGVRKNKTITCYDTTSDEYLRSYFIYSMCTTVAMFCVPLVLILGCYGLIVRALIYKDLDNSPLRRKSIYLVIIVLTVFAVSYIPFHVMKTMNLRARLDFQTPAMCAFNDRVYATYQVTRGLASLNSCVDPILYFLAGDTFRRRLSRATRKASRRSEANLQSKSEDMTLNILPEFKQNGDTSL

## apyrase
Human P2Y1-R [1]; (+) apyrase 1 min
  Basal BRET signal: 0.9128 and 0.7477 and 0.6192 and 0.8378
Human P2Y1-R [1]; (+) apyrase 5 min
  Basal BRET signal: 0.6209 and 0.8174 and 0.9018 and 0.7551
Human P2Y1-R [1]; (+) apyrase 10 min
  Basal BRET signal: 0.6295 and 0.8302 and 0.9025 and 0.7259
[2]; (+) apyrase 1 min
  Basal BRET signal: 2.035 and 1.852 and 1.218 and 1.795
[2]; (+) apyrase 5 min
  Basal BRET signal: 1.227 and 1.746 and 2.0243 and 1.801
[2]; (+) apyrase 10 min
  Basal BRET signal: 1.204 and 1.749 and 1.987 and 1.796
Human P2Y1-R [3]
  Basal BRET signal: 0.9766 and 1.039 and 0.9705 and 1.011
Human P2Y12-R
  Basal BRET signal: 0.9157 and 0.9699 and 0.8998 and 0.9124
HEK293T cells (pcDNA3.1)
  Basal BRET signal: 0.8767 and 0.9382 and 0.883 and 0.8696
